# Experimental data from US20210008088A1, “COMPOSITION FOR PREVENTING OR TREATING NON-ALCOHOLIC LIVER DISEASE OR INSULIN RESISTANCE COMPRISING GINSENOSIDE F2” (INTELLIGENT SYNTHETIC BIOLOGY CENTER, priority 2015, published 2021).
# Key:
# hepatic stellate cells = assay: Expression of endocannabinoid synthase in hepatic stellate cells treated with TNF-α; type: cell-based; conditions: hepatic stellate cells after TNF-α; 10 μM, 20 μM, and 30 μM; 24 hours (FIG. 5)
# Description: After treating hepatic stellate cells with TNF-α, they were treated with ginsenoside F2 at concentrations of 10 μM, 20 μM, and 30 μM, and cultured for 24 hours. As a result of examining the difference in expression levels in the cultured hepatic stellate cells, it was confirmed that ginsenoside F2 inhibits the expression of DAGLα and DAGLβ, which are enzymes important for the synthesis of 2-AG, a kind of endocannabinoids, and that ginsenoside F2 inhibits the expression of NAPE-PLD and FAAH, which are factors associated with liver damage (FIG. 5).
# [1] = test system: breast cancer stem cells (CSCs); conditions: inducing apoptosis along with autophagy in breast cancer stem cells; Mai T T et al. 2012; cited from earlier work
# [2] = test system: adipogenesis in the liver (SREBP1c, FAS, CB1R, NAPE-PLD); assay: Analysis of liver tissues of high fat diet-fed mice (H&E, Oil-red O staining, triglyceride, protein and gene expression); type: in vivo, mouse
# Description: Hematoxylin and Eosin (H&E) staining was performed for the observation of the changes in the liver tissues, and the triglycerides in hepatocytes were stained via Oil-red O staining, and the results are shown under ×100 magnification (FIG. 2A). As a result, it was confirmed again that the lipid accumulation in hepatocytes was reduced.
# [3] = test system: mouse fed with high fat diet; assay: Improvement in insulin sensitivity: blood glucose after glucose and insulin administration; type: in vivo; conditions: vs control group (FIG. 3)
# Description: An eleven-week-old mouse was administered with glucose and insulin and the blood glucose level was monitored in a time-dependent manner.
# [4] = test system: mouse model fed with high fat diet; assay: Effect of alleviating fatty liver in mouse model fed with high fat diet; type: in vivo; conditions: 50 mg/kg orally five days a week for 12 weeks
# Description: The effect of ginsenoside F2 on alleviating fatty liver was confirmed using a mouse model fed with high fat diet. Eight-week-old male mouse (body weight; 25 g to 28 g) were orally fed with high fat diet and ginsenoside F2 (50 mg/kg) five days a week for a period of 12 weeks. […] From the results, it was confirmed that ginsenoside F2 has the effect of inhibiting fatty liver production in mice even when they were fed with high fat diet.
# glioblastoma = conditions: xenograft model in SD rats; Shin J Y et al. 2012; cited from earlier work
# [5] = test system: inflammatory cytokines (TNF-α, IL-1β, and IL-6); assay: Expression of inflammatory cytokines in mouse fed with high fat diet; type: in vivo; conditions: mouse fed with high fat diet and ginsenoside F2 (FIG. 4)
# [6] = liver, high fat diet-fed mice (FIGS. 2C and 2D)
smiles,measurement,setting,value
CC(C)=CCC[C@](C)(O[C@@H]1O[C@H](CO)[C@@H](O)[C@H](O)[C@H]1O)[C@H]1CC[C@]2(C)[C@@H]1[C@H](O)C[C@@H]1[C@@]3(C)CC[C@H](O[C@@H]4O[C@H](CO)[C@@H](O)[C@H](O)[C@H]4O)C(C)(C)[C@@H]3CC[C@]12C [ginsenoside F2],expression of DAGLα,hepatic stellate cells,inhibits
same,expression of DAGLβ,hepatic stellate cells,inhibits
same,expression of FAAH,hepatic stellate cells,inhibits
same,expression of NAPE-PLD,hepatic stellate cells,inhibits
same,anticancer effect in breast cancer,[1],anticancer effect
same,lipid accumulation in hepatocytes,"[2]; H&E and Oil-red O staining, ×100 magnification (FIG. 2A)",reduced
same,triglyceride level in the liver,[2]; high fat diet-fed mice (FIG. 2B),lowered
same,expression of CB1R gene,[2]; [6],reduced
same,expression of FAS gene,[2]; [6],reduced
same,expression of NAPE-PLD gene,[2]; [6],reduced
same,expression of SREBP1c gene,[2]; [6],reduced
same,protein expression of FAS,[2]; [6],reduced
same,protein expression of SREBP1c,[2]; [6],reduced
same,blood glucose level with time,[3],decrease
same,size of liver,[4]; vs control group (FIG. 1A),significant decrease
same,weight of liver,[4]; vs control group (FIG. 1B),significant decrease
same,anticancer effect against glioblastoma,glioblastoma,anticancer effect
same,expression of IL-1β,[5],inhibit
same,expression of IL-6,[5],inhibit
same,expression of TNF-α,[5],inhibit
